Experimental data published in ChEMBL document CHEMBL1201862, “PubChem BioAssay data set” (2004).
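The compound was tested at five concentrations on cells cultured in 96-well plates, with a 48-hour exposure period. GI50: concentration for 50% inhibition of growth.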 Active and inactive are the calls of the source. Cut-off read from the data, not from the text of the source: active = GI50 up to about 1.1 µM and inactive = higher.

What was measured:
Test in all cases: growth of human tumour cells (NCI), 48 h
A549 = system: A549
ACHN = system: ACHN
DU-145 = system: DU-145
EKVX = system: EKVX
HCT-15 = system: HCT-15
HT-29 = system: HT-29
KM12 = system: KM12
M14 = system: M14
MDA-N = system: MDA-N
Malme-3M = system: Malme-3M
NCI-H226 = system: NCI-H226
NCI-H460 = system: NCI-H460
NCI-H522 = system: NCI-H522
RPMI-8226 = system: RPMI-8226
SF-539 = system: SF-539
SK-MEL-2 = system: SK-MEL-2
SK-OV-3 = system: SK-OV-3
SNB-75 = system: SNB-75
U-251 = system: U-251
UACC-257 = system: UACC-257

SMILES	GI50 (A549)	GI50 (ACHN)	GI50 (DU-145)	GI50 (EKVX)	GI50 (HCT-15) [µM]	GI50 (HT-29)	GI50 (KM12)	GI50 (M14)	GI50 (MDA-N)	GI50 (Malme-3M)	GI50 (NCI-H226)	GI50 (NCI-H460)	GI50 (NCI-H522)	GI50 (RPMI-8226)	GI50 (SF-539)	GI50 (SK-MEL-2)	GI50 (SK-OV-3)	GI50 (SNB-75)	GI50 (U-251)	GI50 (UACC-257)
O=Nc1ccc(O)c2ncccc12	2.5 µM (inactive)	3.13 µM (inactive)	5.7 µM (inactive)	0.525 µM (active)	2.52	15.3 µM (inactive)	5.19 µM (inactive)	6.03 µM (inactive)	1.75 µM (inactive)	11.8 µM (inactive)	19.6 µM (inactive)	1.25 µM (inactive)	1.43 µM (inactive)	3.52 µM (inactive)	1.44 µM (inactive)	2.21 µM (inactive)	12.6 µM (inactive)	2.51 µM (inactive)	3.31 µM (inactive)	6.37 µM (inactive)
COC(=O)C1C(OS(=O)(=O)O)CCC2CN3CCc4c([nH]c5ccccc45)C3CC21 (stereo not given)	> 100 µM (inactive)	> 100 µM (inactive)	> 100 µM (inactive)	> 100 µM (inactive)	> 100	> 100 µM (inactive)	> 100 µM (inactive)	> 100 µM (inactive)	> 100 µM (inactive)	> 100 µM (inactive)	> 100 µM (inactive)	> 100 µM (inactive)	> 100 µM (inactive)	> 100 µM (inactive)	> 100 µM (inactive)	> 100 µM (inactive)	> 100 µM (inactive)	> 100 µM (inactive)	> 100 µM (inactive)	> 100 µM (inactive)
O=C(O)c1nn[nH]c1S	> 100 µM (inactive)	> 100 µM (inactive)	> 100 µM (inactive)	> 100 µM (inactive)	> 100	> 100 µM (inactive)	> 100 µM (inactive)	> 100 µM (inactive)	> 100 µM (inactive)	> 100 µM (inactive)	> 100 µM (inactive)	> 100 µM (inactive)	> 100 µM (inactive)	> 100 µM (inactive)	30.6 µM (inactive)	> 100 µM (inactive)	> 100 µM (inactive)	> 100 µM (inactive)	> 100 µM (inactive)	> 100 µM (inactive)
BrCC[N+]12CC[N+](CCBr)(CC1)C2	> 100 µM (inactive)	> 100 µM (inactive)	> 100 µM (inactive)	> 100 µM (inactive)	> 100	> 100 µM (inactive)	> 100 µM (inactive)	> 100 µM (inactive)	> 100 µM (inactive)	> 100 µM (inactive)	> 100 µM (inactive)	> 100 µM (inactive)	> 100 µM (inactive)	> 100 µM (inactive)	> 100 µM (inactive)	> 100 µM (inactive)	> 100 µM (inactive)	> 100 µM (inactive)	> 100 µM (inactive)	> 100 µM (inactive)
O=c1c2nc(-c3ccccc3)oc2n(-c2ccccc2)c(=O)n1-c1ccccc1	37.6 µM (inactive)	25.9 µM (inactive)	82.2 µM (inactive)	28.4 µM (inactive)	> 46.5	> 46.5 µM (inactive)	33.2 µM (inactive)	> 46.5 µM (inactive)	> 46.5 µM (inactive)	> 31.6 µM (inactive)	31.8 µM (inactive)	31.8 µM (inactive)	21.4 µM (inactive)	> 46.5 µM (inactive)	20.2 µM (inactive)	> 46.5 µM (inactive)	21.5 µM (inactive)	18.1 µM (inactive)	19.3 µM (inactive)	36.3 µM (inactive)
CCC(N)(C(=O)O)C(C)C (stereo not given)	> 100 µM (inactive)	> 100 µM (inactive)	> 100 µM (inactive)	> 100 µM (inactive)	> 100	> 100 µM (inactive)	> 100 µM (inactive)	> 100 µM (inactive)	> 100 µM (inactive)	> 100 µM (inactive)	> 100 µM (inactive)	> 100 µM (inactive)	> 100 µM (inactive)	> 100 µM (inactive)	> 100 µM (inactive)	> 100 µM (inactive)	> 100 µM (inactive)	> 100 µM (inactive)	> 100 µM (inactive)	> 100 µM (inactive)
[Se]=P(c1ccccc1)(c1ccccc1)c1ccc(C(c2ccccc2)=P(c2ccccc2)(c2ccccc2)c2ccccc2)cc1	1.44 µM (inactive)	2.44 µM (inactive)	1.24 µM (inactive)	1.89 µM (inactive)	4.55	0.406 µM (active)	0.439 µM (active)	1.54 µM (inactive)	0.753 µM (active)	0.499 µM (active)	1.31 µM (inactive)	1.28 µM (inactive)	0.33 µM (active)	0.313 µM (active)	1.46 µM (inactive)	0.957 µM (active)	2.05 µM (inactive)	0.431 µM (active)	0.385 µM (active)	0.817 µM (active)
O=C1OS2(OCc3cccc4cccc2c34)c2ccccc21 (stereo not given)	> 100 µM (inactive)	> 100 µM (inactive)	> 100 µM (inactive)	> 100 µM (inactive)	> 100	> 100 µM (inactive)	> 100 µM (inactive)	> 100 µM (inactive)	> 100 µM (inactive)	> 100 µM (inactive)	> 100 µM (inactive)	> 100 µM (inactive)	50.8 µM (inactive)	> 100 µM (inactive)	> 100 µM (inactive)	> 100 µM (inactive)	> 100 µM (inactive)	> 100 µM (inactive)	> 100 µM (inactive)	> 100 µM (inactive)
Cn1c(=O)n(CC(Br)CBr)c(=O)n(CC(Br)CBr)c1=O (stereo not given)	40.3 µM (inactive)	36.6 µM (inactive)	71.3 µM (inactive)	25.2 µM (inactive)	36.2	21.7 µM (inactive)	48.9 µM (inactive)	24.3 µM (inactive)	28.8 µM (inactive)	> 100 µM (inactive)	20.2 µM (inactive)	33.4 µM (inactive)	28 µM (inactive)	25.1 µM (inactive)	25.3 µM (inactive)	46.1 µM (inactive)	> 100 µM (inactive)	58.5 µM (inactive)	43.3 µM (inactive)	31.8 µM (inactive)
COC(=O)C1C(O)C(C)C(O)C(C)C=C(C)C2=C3C(=C(C)C(=O)c4c(O)c(c(C)c(OC(C)=O)c43)NC(=O)C(C)=C/C=C\C(C)C(O)C(C)C1O)OCO2 (stereo not given)	54 µM (inactive)	27 µM (inactive)	57.7 µM (inactive)	34.3 µM (inactive)	22.4	27.7 µM (inactive)	31.9 µM (inactive)	25.2 µM (inactive)	16.9 µM (inactive)	16.2 µM (inactive)	55.2 µM (inactive)	67.5 µM (inactive)	16 µM (inactive)	18.4 µM (inactive)	37.8 µM (inactive)	23.7 µM (inactive)	> 100 µM (inactive)	12.4 µM (inactive)	45.4 µM (inactive)	13.4 µM (inactive)
CN(C)CCCC12CCCCC1=Nc1ccccc12 (stereo not given)	> 100 µM (inactive)	> 100 µM (inactive)	> 100 µM (inactive)	> 100 µM (inactive)	> 100	> 100 µM (inactive)	> 100 µM (inactive)	> 100 µM (inactive)	> 100 µM (inactive)	> 100 µM (inactive)	> 100 µM (inactive)	> 100 µM (inactive)	97.7 µM (inactive)	65.5 µM (inactive)	> 100 µM (inactive)	> 100 µM (inactive)	> 100 µM (inactive)	> 100 µM (inactive)	> 100 µM (inactive)	> 100 µM (inactive)
SC1=Nc2ccccc2-c2nc(-c3cccc(Cl)c3)cc(-c3ccccc3)c2C1	1.75 µM (inactive)	0.811 µM (active)	5.36 µM (inactive)	3.54 µM (inactive)	7.08	2.38 µM (inactive)	4.53 µM (inactive)	4.61 µM (inactive)	3.48 µM (inactive)	4.35 µM (inactive)	3.68 µM (inactive)	1.3 µM (inactive)	2.06 µM (inactive)	3.2 µM (inactive)	1.69 µM (inactive)	5.25 µM (inactive)	2.11 µM (inactive)	1.83 µM (inactive)	1.19 µM (inactive)	5.9 µM (inactive)
O=c1c(C(c2ccc3ccccc3c2)c2c(O)oc3ccccc3c2=O)c(O)oc2ccccc12	33 µM (inactive)	20.6 µM (inactive)	40.7 µM (inactive)	31.9 µM (inactive)	20	18.5 µM (inactive)	18.1 µM (inactive)	25.9 µM (inactive)	27.4 µM (inactive)	17.7 µM (inactive)	26.5 µM (inactive)	27.7 µM (inactive)	17.5 µM (inactive)	32.4 µM (inactive)	25.5 µM (inactive)	34.5 µM (inactive)	50.9 µM (inactive)	18.8 µM (inactive)	16.6 µM (inactive)	51.5 µM (inactive)
COc1ccc(C(=O)c2sc(Nc3ccc(Cl)cc3)nc2N)cc1	6.15 µM (inactive)	25.4 µM (inactive)	25 µM (inactive)	32.8 µM (inactive)	3.27	4.43 µM (inactive)	4.48 µM (inactive)	> 63.8 µM (inactive)	2.37 µM (inactive)	12.3 µM (inactive)	29.6 µM (inactive)	4.31 µM (inactive)	3.89 µM (inactive)	4.16 µM (inactive)	14 µM (inactive)	17 µM (inactive)	6.35 µM (inactive)	2.79 µM (inactive)	10.7 µM (inactive)	11.9 µM (inactive)
